Experimental data from US10836757B1, “Polymorphic forms of metopimazine” (Neurogastrx, Inc., priority 2020, dated 2020).
Entries after “also recorded” stand apart in the source; their conditions may differ. Where a name gives a salt, the structure may show the parent alone. Read-outs that look alike come from different tables or passages of the source.

Legend:
[1] = Clinical comparative pharmacokinetic study, 3-period cross-over, single oral doses, plasma samples; format: in vivo, human; conditions: for AUC(0-inf) / Cmax / Tmax: human, po, 15 mg; for AUC(0-inf): read-out: AUC0-inf Geometric Least Square Mean (GLSM); for Cmax: read-out: Cmax Geometric Least Square Mean (GLSM)
Description: A clinical comparative pharmacokinetic study was performed to understand the pharmacokinetic profile of metopimazine mesylate Crystal Form A in comparison to the free base of metopimazine. This study was as a 3-period, cross-over design with 3 administrations of single doses: oral formulation of metopimazine mesylate Crystal Form A fasting, oral formulation of metopimazine mesylate Crystal Form A after a high-fat breakfast, and oral formulation of metopimazine free base fasting, with a wash-out period of 48 hours between each administration. Fifteen subjects were enrolled and received each of the 3 treatment. Plasma samples from each subject were analyzed for various pharmacokinetic parameters. Mixed model repeated measures (MMRM) analysis was performed on each sample.
The second objective of this study was to compare the pharmacokinetics of metopimazine mesylate Crystal Form A administered as an oral administration of a single dose of 15 mg orally in 15 human subjects either in a fasted state or after a high fat breakfast. Plasma samples from each subject were analyzed for various pharmacokinetic parameters. […] Both Cmax and AUC are well within the 90% confidence interval.

[2] = administration before and after a high fat breakfast; cited from earlier work
[3] = single oral dose 15 mg, n = 15, fasted, plasma
[4] = 15 mg oral, n = 15, 90% confidence interval
[5] = 15 mg oral, n = 15, 90% confidence interval, *Bioequivalence
[6] = plasma, 15 mg oral, n = 15, fasted
[7] = plasma, 15 mg oral, n = 15, fed high fat breakfast (1030 kcal, 16% protein, 61% fat, 23% carbohydrate)

Tmax, Median [1, 3] [h] | Tmax, Min [1, 3] [min] | Reduction in Cmax when administered with food ([1]; 15 mg oral, high fat breakfast vs fasted) | Geometric mean difference in Cmax, high fat breakfast vs fasted ([1]; 15 mg oral, n = 15) | Cmax ratio fasted vs fed, Lower CI % [1, 4] [%] | Cmax ratio fasted vs fed, Upper CI % [1, 4] [%] | AUC0-inf ratio fasted vs fed, Lower CI % [1, 5] | AUC0-inf ratio fasted vs fed, Upper CI % [1, 5] | AUC(0-inf) [1, 6] [ng·h/mL] | Cmax [1, 6] [ng/mL] | AUC(0-inf) [1, 7] [ng·h/mL] | Cmax [1, 7] [ng/mL] | Tmax ([1]; plasma, single oral dose 15 mg, n = 15, fasted, plasma, read-out: Tmax, Mean) [min] | Tmax ([1]; plasma, single oral dose 15 mg, n = 15, fasted, plasma, read-out: Tmax, Median) [min] | SMILES | Reduction in AUC (food effect) [2] [%] | Reduction in Cmax (food effect) [2] [%] | Change in AUC, high fat breakfast vs fasted ([1]; 15 mg oral, n = 15)
1.00 | 30 | – | – | – | – | – | – | – | – | – | – | – | – | CS(=O)(=O)c1ccc2c(c1)N(CCCN1CCC(C(N)=O)CC1)c1ccccc1S2 [Metopimazine free base, 1-(3-(2-(methylsulfonyl)-10H-phenothiazin-10-yl)propyl)piperidine-4-carboxamide, reference compound] | 23 | 58 | –
– | – | approximately 15% | slightly but significantly lower | 63.82 | 110.75 | 86.00* % | 101.93* % | 64 | 18.2 | 59.9 | 15.3 | 52.2 | 45 | CS(=O)(=O)c1ccc2c(c1)N(CCCN1CCC(C(N)=O)CC1)c1ccccc1S2 [Metopimazine mesylate Crystal Form A, 1-(3-(2-(methylsulfonyl)-10H-phenothiazin-10-yl)propyl)piperidine-4-carboxamide methanesulfonic acid] | – | – | not statistical difference; also recorded: no notable change
